Experimental data reported in PubChem BioAssay (NCI).
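Dose response: 5 concentrations. Exposure: 48 h. Format: 96-well plates. Endpoint: linear interpolation; highest concentration if not reached. The concentration for 50% growth inhibition is given as GI50. TGI marks complete inhibition of growth.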

Assays:
Assay in all cases: DTP human tumour cell line panel, 48 h
CCRF-CEM leukemia = test system: CCRF-CEM leukemia
HCT-15 colon = test system: HCT-15 colon
HOP-62 NSCLC = test system: HOP-62 NSCLC
MCF7 breast = test system: MCF7 breast
MOLT-4 leukemia = test system: MOLT-4 leukemia
OVCAR-8 ovarian = test system: OVCAR-8 ovarian
PC-3 prostate = test system: PC-3 prostate
SF-268 CNS = test system: SF-268 CNS
SK-MEL-5 melanoma = test system: SK-MEL-5 melanoma
SW-620 colon = test system: SW-620 colon

| Compound | TGI (CCRF-CEM leukemia) [µM] | TGI (HCT-15 colon) [µM] | TGI (HOP-62 NSCLC) [µM] | TGI (MCF7 breast) [µM] | TGI (MOLT-4 leukemia) [µM] | TGI (OVCAR-8 ovarian) [µM] | TGI (PC-3 prostate) [µM] | TGI (SF-268 CNS) [µM] | TGI (SK-MEL-5 melanoma) [µM] | TGI (SW-620 colon) [µM] | GI50 (CCRF-CEM leukemia) [µM] | GI50 (HCT-15 colon) [µM] | GI50 (HOP-62 NSCLC) [µM] | GI50 (MCF7 breast) [µM] | GI50 (MOLT-4 leukemia) [µM] | GI50 (OVCAR-8 ovarian) [µM] | GI50 (PC-3 prostate) [µM] | GI50 (SK-MEL-5 melanoma) [µM] | GI50 (SW-620 colon) [µM] |
| --- | --- | --- | --- | --- | --- | --- | --- | --- | --- | --- | --- | --- | --- | --- | --- | --- | --- | --- | --- |
| CCOC(=O)c1ccc(Nc2nc3ccc(C(F)(F)F)cc3nc2-c2ccccc2)cc1 | > 100 | > 100 | > 100 | > 100 | > 100 | > 100 | > 100 | > 100 | > 100 | > 100 |  |  |  |  |  |  |  |  |  |
| O/N=C1\CC2(N3CCOCC3)CCC1(Cc1ccccc1)CC2 | > 100 | > 100 | 47.8 | > 100 | > 100 | 48.1 | > 100 | 76.6 | > 100 | > 100 |  |  |  |  |  |  |  |  |  |
| COc1cc2cnc3c(c2cc1OC)Cc1cc2c(cc1-3)OCO2 | 0.0344 | > 100 | 17.4 | > 81.8 | 0.205 | > 100 |  | 31.3 | 5.39 | > 100 | < 0.01 | < 0.01 | < 0.0268 | 0.0333 | < 0.01 | 0.0527 | < 0.01 | < 0.01 | < 0.01 |
| O=C(O)c1cc2c(cc1S(=O)(=O)O)C1C(C3C2C2(Cl)C(Cl)=C(Cl)C3(Cl)C2(Cl)Cl)C2(Cl)C(Cl)=C(Cl)C1(Cl)C2(Cl)Cl (stereo not drawn) | 37.3 | > 100 | 89.1 | > 100 | > 100 | > 100 | > 100 | > 100 | > 100 | > 100 |  |  |  |  |  |  |  |  |  |
| CCOC(=O)/C=C/[C@H](O[Si](c1ccccc1)(c1ccccc1)c1ccccc1)C(C)(C)C | > 31.6 | > 31.6 | > 31.6 | > 31.6 | > 31.6 | > 31.6 | > 31.6 | > 31.6 | > 31.6 | > 31.6 |  |  |  |  |  |  |  |  |  |
| C=CC1(CBr)CCC(C(C)(C)Br)O1 (stereo not drawn) | 6.51 | 23.8 | 30 | 34.1 | 7.06 | 9.45 | 24.5 | 38.2 | 23.2 | 10.5 |  |  |  |  |  |  |  |  |  |
| O=C(c1ccco1)N1CCN(C(=O)c2ccco2)C1=S | 5.7 | 26.3 | 33.1 | 11 | 24.5 | 62.5 | 17.5 | 21.8 | 25.1 | 24.7 |  |  |  |  |  |  |  |  |  |
| CCOP(=O)(OCC)C(Cc1ccccc1)N=C(c1ccccc1)c1ccccc1 (stereo not drawn) | 37.1 | 25 | 35.2 | 31.2 | 25.8 | 33.8 | 16.8 | 37.6 | 25.5 | 25.2 |  |  |  |  |  |  |  |  |  |
| CCOC(=O)NNC1(SC)NC(=O)c2c(cc(Cl)oc2=O)O1 (stereo not drawn) | 10.5 | 5.28 | 25.6 | 5.84 | 10.3 | 5.56 | 13.2 | 10.7 | > 45.5 | > 37 |  |  |  |  |  |  |  |  |  |
| CC(=O)NC1CCC(NC(=O)OC(C)(C)C)C(NC(=O)OC(C)(C)C)C1 (stereo not drawn) | > 100 | > 100 | > 100 | > 100 | > 100 | > 100 | > 100 | > 100 | > 100 | > 100 |  |  |  |  |  |  |  |  |  |
| C=C1CC(CNc2cc(Cl)nc(N)n2)C1 | > 100 | > 100 | > 100 | > 100 | > 100 | > 100 | > 100 | > 100 | > 100 | > 100 |  |  |  |  |  |  |  |  |  |
| COc1cccc2c1C(=O)c1ccc3cc(CO)cc(O)c3c1C2=O | 2.02 | 1.17 | 6.33 | 1.56 | 4.22 | 2.22 | 1.17 | 5.18 | 0.508 | 1.2 |  |  |  |  |  |  |  |  |  |
| CCCCCC(/C=N/NC(N)=S)C(O)(C(F)(F)F)C(F)(F)F (stereo not drawn) | > 10 | > 10 | > 10 | > 10 | > 10 | > 10 | > 10 | > 10 | > 10 | > 10 |  |  |  |  |  |  |  |  |  |
| C=CCOc1ccc(C2c3c([nH][nH]c3=O)CC(C)(O)C2C(=O)OC)cc1OC (stereo not drawn) | > 100 | > 100 | > 100 | > 100 | > 100 | > 100 | > 100 | > 100 | > 100 | > 100 |  |  |  |  |  |  |  |  |  |
| COc1cc(/C=C/C(=O)O)ccc1O | > 100 | > 100 | > 100 | > 100 | > 100 | > 100 | > 100 | > 100 | > 100 | > 100 |  |  |  |  |  |  |  |  |  |
| c1ccc2c(Cc3c[nH]c4ccccc34)c[nH]c2c1 | 37.2 | > 100 | 33.8 | > 100 | 61.1 | 42.8 | 38.3 | 45.7 | 27.2 | 61.6 |  |  |  |  |  |  |  |  |  |
| CCOC(=O)CC[C@@H](NC(=O)c1ccc(NCc2ccc3nc(OC)c(OC)nc3c2)cc1)C(=O)OCC | > 100 | > 100 | > 100 | > 31.6 | > 31.6 | > 100 | > 100 | > 100 | 27.9 | > 100 |  |  |  |  |  |  |  |  |  |
